Measured values: patent publication US20240092759A1, “Non-Covalent Inhibitors of the Main Protease of SARS-CoV-2 and Methods of Use” (YALE UNIVERSITY, priority 2021, published 2024)
Like-named read-outs stand apart in the source and are kept apart here.

Target: recombinant SARS-Cov-2 M^pro (Severe acute respiratory syndrome coronavirus 2 (2019-nCoV) (SARS-CoV-2), UniProt P0DTD1)
Test: biochemical
[1] = read-out: IC50 (μM), inhibition of SARS-CoV-2 M^pro, Table 1, 100 nM M^pro, triplicate, perampanel: fluorescence of compound interfered with assay
[2] = read-out: IC50 (μM), inhibition of SARS-Cov-2 M^pro, Table 4

Compound | IC50 (read-out: IC50) [µM] | IC50 [1] [µM] | IC50 [2] [µM]
N#Cc1ccccc1-c1cc(-c2cccc(Cl)c2)c(=O)n(-c2cccnc2)c1 [Compound 6, 2-(3-(3-Chlorophenyl)-2-oxo-2H-[1,3′-bipyridin]-5-yl)benzonitrile] | 10 | 9.99 ± 2.5 | –
O=c1[nH]cc(-c2cc(-c3cccc(Cl)c3)c(=O)n(-c3cccnc3)c2)c(=O)[nH]1 [Compound 8, 5-(3-(3-Chlorophenyl)-2-oxo-2H-[1,3′-bipyridin]-5-yl)pyrimidine-2,4(1H,3H)-dione] | 6.4 | – | 6.38 ± 1.21
N#Cc1ccccc1-c1cc(-c2cccc(Cl)c2)c(=O)n(-c2ccc[n+]([O-])c2)c1 [Compound 10] | – | – | 15.6 ± 2.37
N#Cc1ccccc1-c1cc(-c2cc(Cl)cc(Cl)c2)c(=O)n(-c2ccc[n+]([O-])c2)c1 [Compound 11] | – | – | 5 to 20
N#Cc1ccccc1-c1cc(-c2cc(Cl)cc(OCc3ccccc3)c2)c(=O)n(-c2cccnc2)c1 [Compound 14, 2-(3-(3-(Benzyloxy)-5-chlorophenyl)-2-oxo-2H-[1,3′-bipyridin]-5-yl)benzonitrile] | 0.28 | 0.28 ± 0.05 | 0.28 ± 0.05
COCCOc1cc(Cl)cc(-c2cc(-c3ccccc3C#N)cn(-c3cccnc3)c2=O)c1 [Compound 16, 2-(3-(3-Chloro-5-(2-methoxyethoxy)phenyl)-2-oxo-2H-[1,3′-bipyridin]-5-yl)benzonitrile] | – | 0.47 ± 0.02 | 0.47 ± 0.02
N#Cc1ccccc1-c1cc(-c2cc(Cl)cc(OCCc3ccccc3)c2)c(=O)n(-c2cccnc2)c1 [Compound 17, 2-(3-(3-Chloro-5-phenethoxyphenyl)-2-oxo-2H-[1,3′-bi-pyridin]-5-yl)benzonitrile] | 0.51 | 0.51 ± 0.02 | 0.51 ± 0.015
COc1cc(Cl)cc(-c2cc(-c3c[nH]c(=O)[nH]c3=O)cn(-c3cccnc3)c2=O)c1 [Compound 18, 5-(3-(3-Chloro-5-methoxyphenyl)-2-oxo-2H-[1,3′-bipyridin]-5-yl)pyrimidine-2,4(1H,3H)-dione] | 1.2 | 1.2 ± 0.03 | 1.2 ± 0.03
N#Cc1cccc(-c2cc(-c3c[nH]c(=O)[nH]c3=O)cn(-c3cccnc3)c2=O)c1 [Compound 19] | – | – | 10
COc1cc(F)cc(-c2cc(-c3c[nH]c(=O)[nH]c3=O)cn(-c3cccnc3)c2=O)c1 [Compound 20] | – | – | 10 to 100
O=c1[nH]cc(-c2cc(-c3cc(Cl)cc(OCc4ccccc4)c3)c(=O)n(-c3cccnc3)c2)c(=O)[nH]1 [Compound 21] | 0.128 | – | 0.128 ± 0.015
COc1ccc(-c2cc(-c3cccc(Cl)c3)c(=O)n(-c3cccnc3)c2)c(C#N)n1 [Compound 22] | – | – | 10 to 100
N#Cc1[nH]c(=O)ccc1-c1cc(-c2cccc(Cl)c2)c(=O)n(-c2cccnc2)c1 [Compound 23] | – | – | 10
CCCCOc1cc(Cl)cc(-c2cc(-c3c[nH]c(=O)[nH]c3=O)cn(-c3cccnc3)c2=O)c1 [Compound 25, 5-(3-(3-Butoxy-5-chlorophenyl)-2-oxo-2H-[1,3′-bipyridin]-5-yl)pyrimidine-2,4(1H,3H)-dione] | – | 0.25 ± 0.09 | 0.25 ± 0.089
CC(C)CCOc1cc(Cl)cc(-c2cc(-c3c[nH]c(=O)[nH]c3=O)cn(-c3cccnc3)c2=O)c1 [Compound 26, 5-(3-(3-Chloro-5-(isopentyloxy)phenyl)-2-oxo-2H-[1,3′-bipyridin]-5-yl)pyrimidine-2,4(1H, 3H)-dione] | – | 0.19 ± 0.03 | 0.19 ± 0.026
CC(C)(O)CCOc1cc(Cl)cc(-c2cc(-c3c[nH]c(=O)[nH]c3=O)cn(-c3cccnc3)c2=O)c1 [Compound 28] | – | – | 0.25 to 0.5
O=c1[nH]cc(-c2cc(-c3cc(Cl)cc(OCCc4ccccc4)c3)c(=O)n(-c3cccnc3)c2)c(=O)[nH]1 [Compound 29, 5-(3-(3-Chloro-5-phenethoxyphenyl)-2-oxo-2H-[1,3′-bipyridin]-5-yl)pyrimidine-2,4(1H, 3H)-dione] | 0.11 | 0.11 ± 0.013 | –
COc1cc(CCOc2cc(Cl)cc(-c3cc(-c4ccccc4C#N)cn(-c4cccnc4)c3=O)c2)cc(OC)c1 [Compound 30] | – | – | > 1
